Like-named read-outs stand apart in the source and are kept apart here.

The text below walks through data of patent publication US11046700B2, “Substituted imidazo[1,2-a]pyrazines, pyrazolo[1,5-c]pyrimidines, pyrazolo[1,5-a]pyridines, and purines for the treatment of schistosomiasis” (Merck Patent GmbH, priority 2017, dated 2021).

Holding throughout (assay type): cell-based
The subject of one data set is S. mansoni adult worms. The data set is described as follows: In vitro assay, S. mansoni adult worms. The following applies: Schistosoma mansoni; S. mansoni adult worms, in vitro; read-out: (a) Adult. As for the experimental part:
(§1) The routine biological assays using adult or juvenile worms and cytotoxicity assays using MRC-5 cells have been disclosed previously in Mansour, N. R., et al. (2016). “High Throughput Screening Identifies Novel Lead Compounds with Activity against Larval, Juvenile and Schistosoma mansoni PLoS Negl Trap Dis 10(4): e0004659. Cytotoxicity assays using the HepG2 cell line were carried out as described in Molecular Diversity (2015) 19, 251-261.
(a) S. mansoni adult worms

Data set [1] relates to S. mansoni juvenile worms. The data set is described as follows: In vitro assay, S. mansoni juvenile worms. The following applies: Schistosoma mansoni, read-out: (b) Juvenile. On the procedure:
as §1
(b) S. mansoni juvenile worms

Another data set concerns HepG2 cell line. The experiment in a line: Cytotoxicity against human HepG2 cell lines.
Setting [2] is: S. mansoni juvenile worms, in vitro.

For the molecule `Cc1nc2cnc(-c3cccc(C(F)(F)F)c3)cn2c1-c1ccc(O)cc1` [Example 4, 4-[2-methyl-6-[3-(trifluoromethyl)phenyl]imidazo[1,2-a]pyrazin-3-yl]phenol], the results for the IC50 (with S. mansoni adult worms; in data set [1] (setting [2])) were 490 nM and 1420 nM, respectively.

As for `COc1ccc(-c2c(C(C)C)nc3cnc(-c4ccc(F)c(C(F)(F)F)c4)cn23)cc1O` [Example 27, 2-methoxy-5-[2-(propan-2-yl)-6-[4-fluoro-3-(trifluoromethyl)phenyl]imidazo[1,2-a]pyrazin-3-yl]phenol], the IC50 in the data set with S. mansoni adult worms was < 49 nM; in data set [1] (setting [2]), 149 nM.

On to `COc1cc(O)ccc1-c1c(C(C)C)nc2cnc(-c3cccc(C(F)(F)F)c3)cn12` [Example 20, 4-(2-isopropyl-6-(3-(trifluoromethyl)phenyl)imidazo[1,2-a]pyrazin-3-yl)-3-methoxyphenol], for which the IC50 was determined as 920 nM in the data set with S. mansoni adult worms and 1040 nM in data set [1] (setting [2]).

With `COc1ccc(-c2c(C(C)C)nc3cnc(-c4cccc(C(F)(F)F)c4)cn23)cc1OP(=O)(O)O` [Example 28, 2-methoxy-5-[2-(propan-2-yl)-6-[3-(trifluoromethyl)phenyl]imidazo[1,2-a]pyrazin-3-yl]phenoxyphosphonic acid], the IC50 in data set [1] stood at 183 nM. Besides, the “(e) Cytotox HepG2” value with HepG2 cell line came out at 19.2 µM.

On to `C#CCOc1cc(-c2cn3c(-c4ccc5[nH]ncc5c4F)c(C(F)(F)F)nc3cn2)ccc1F` [Example 78, 3-(4-Fluoro-1H-indazol-5-yl)-6-(4-fluoro-3-prop-2-ynyloxy-phenyl)-2-trifluoromethyl-imidazo[1,2-a]pyrazine], for which the figures for the IC50 (with S. mansoni adult worms; in data set [1] (setting [2])) were 10 nM and 21 nM, respectively.

Consider `Fc1ccc(-c2cc3c(-c4ccc5[nH]ncc5c4F)c(C4CC4)nn3cn2)cc1C(F)(F)C(F)(F)F` [Example 59, 2-Cyclopropyl-3-(4-fluoro-1H-indazol-5-yl)-5-(4-fluoro-3-pentafluoroethyl-phenyl)-pyrazolo[1,5-c]pyrimidine], for which the IC50 in the data set with S. mansoni adult worms was determined as 66 nM; in data set [1] (setting [2]) it was 36 nM.

As to `CCCc1nc2cnc(-c3cccc(C(F)(F)F)c3)cn2c1-c1ccc(OC)c(O)c1` [Example 18, 2-methoxy-5-[2-(propan-1-yl)-6-[3-(trifluoromethyl)phenyl]imidazo[1,2-a]pyrazin-3-yl]phenol], the IC50 in data set [1] (setting [2]) was 290 nM.

As to `COc1ccc(-c2c(C3CC3)nc3cnc(-c4cccc(C(F)(F)F)c4)cn23)cc1O` [Example 13, 2-methoxy-5-[2-cyclopropyl-6-[3-(trifluoromethyl)phenyl]imidazo[1,2-a]pyrazin-3-yl]phenol], the IC50 was found to be 72 nM in the data set with S. mansoni adult worms and 63 nM in data set [1] (setting [2]).

For `COc1ccc(-c2c(C(C)C)nn3cnc(-c4cccc(C(F)(F)F)c4)cc23)cc1O` [Example 25, 5-(2-isopropyl-5-(3-(trifluoromethyl)phenyl)pyrazolo[1,5-c]pyrimidin-3-yl)-2-methoxyphenol], the IC50 in data set [1] (setting [2]) stood at 110 nM.

For the molecule `COc1cc(-c2c(C)nc3cnc(-c4cccc(C(F)(F)F)c4)cn23)ccc1O` [Example 5, 2-methoxy-4-(2-methyl-6-(3-(trifluoromethyl)phenyl)imidazo[1,2-a]pyrazin-3-yl)], the results for the IC50 (in the data set on S. mansoni adult worms; in data set [1] (setting [2])) were 520 nM and 1270 nM, respectively.

With `CC(C)c1cc(-c2cn3c(-c4c(F)cc(O)cc4F)c(C4CC4)nc3cn2)ccc1F` [Example 80, 4-[2-Cyclopropyl-6-(4-fluoro-3-isopropyl-phenyl)-imidazo[1,2-a]pyrazin-3-yl]-3,5-difluoro-phenol], the figures for the IC50 (in the data set with S. mansoni adult worms; in data set [1] (setting [2])) were 4 nM and 5 nM, respectively.

`Fc1ccc(-c2cn3c(-c4ccc5[nH]ncc5c4F)c(C4CC4)nc3cn2)cc1C(F)(F)F` [Example 43, 2-cyclopropyl-3-(4-fluoro-1H-indazol-5-yl)-6-(4-fluoro-3-(trifluoromethyl)phenyl)imidazo[1,2-a]pyrazine]: in data set [1] (setting [2]), the IC50 was 110 nM.

For the molecule `Fc1c(-c2c(C3CC3)nc3cnc(-c4cccc(S(F)(F)(F)(F)F)c4)cn23)ccc2[nH]ncc12` [Example 46, 2-cyclopropyl-3-(4-fluoro-1H-indazol-5-yl)-6-(3-(pentafluoro-λ6-sulfaneyl)phenyl)imidazo[1,2-a]pyrazine], the IC50 in data set [1] (setting [2]) was determined as 36 nM. The “(e) Cytotox HepG2” value with HepG2 cell line came to 20.7 µM.

As to `Cc1nc2cnc(-c3ccc(F)c(S(F)(F)(F)(F)F)c3)cn2c1-c1ccc2[nH]ncc2c1F` [Example 64, 3-(4-Fluoro-1H-indazol-5-yl)-6-(4-fluoro-3-pentafluorosulfanyl-phenyl)-2-methyl-imidazo[1,2-a]pyrazine], the IC50 turned out to be 26 nM in the data set on S. mansoni adult worms and 77 nM in data set [1] (setting [2]).

Turning to `Fc1ccc(-c2cn3c(-c4ccc5[nH]ncc5c4F)c(C4CC4)nc3cn2)cc1C(F)(F)C(F)(F)F` [Example 54, 5-{2-cyclopropyl-6-[4-fluoro-3-(1,1,2,2,2-pentafluoroethyl)phenyl]imidazo[1,2-a]pyrazin-3-yl}-4-fluoro-1H-indazole], the IC50 with S. mansoni adult worms stood at 23 nM; in data set [1] (setting [2]) it was 37 nM.

With `Oc1cc(F)c(-c2c(CC(F)(F)F)nc3cnc(-c4ccc(F)c(C(F)(F)F)c4)cn23)c(F)c1` [Example 38, 3,5-difluoro-4-(6-(4-fluoro-3-(trifluoromethyl)phenyl)-2-(2,2,2-trifluoroethyl)imidazo[1,2-a]pyrazin-3-yl)phenol], the IC50 in data set [1] (setting [2]) was 140 nM.

As to `Oc1ccc(-c2c(C(F)(F)F)nc3cnc(-c4cccc(C(F)(F)F)c4)cn23)c(F)c1` [Example 12, 3-fluoro-4-[2-trifluoromethyl-6-[3-(trifluoromethyl)phenyl]imidazo[1,2-a]pyrazin-3-yl]phenol], the IC50 with S. mansoni adult worms is < 49 nM; in data set [1] (setting [2]), 250 nM.

Regarding `Cc1nc2cnc(-c3cccc(S(F)(F)(F)(F)F)c3)cn2c1-c1c(F)cc(O)cc1F` [Example 31, 3,5-difluoro-4-[2-methyl-6-[3-(pentafluorosulfanyl)phenyl]imidazo[1,2-a]pyrazin-3-yl]phenol], the IC50 in data set [1] (setting [2]) was 100 nM.

On to `Fc1ccc(-c2cn3c(-c4ccc5[nH]ncc5c4F)c(C4CCC4)nc3cn2)cc1C(F)(F)F` [Example 76, 2-Cyclobutyl-3-(4-fluoro-1H-indazol-5-yl)-6-(4-fluoro-3-trifluoromethyl-phenyl)-imidazo[1,2-a]pyrazine], for which the figures for the IC50 (in the data set with S. mansoni adult worms; in data set [1] (setting [2])) were 37 nM and 36 nM, respectively.

`COc1ccc(-c2c(CC3CC3)nc3cnc(-c4cccc(C(F)(F)F)c4)cn23)cc1O` [Example 26, 2-methoxy-5-[2-(cyclopropylmethyl)-6-[3-(trifluoromethyl)phenyl]imidazo[1,2-a]pyrazin-3-yl]phenol]: the IC50 in data set [1] (setting [2]) is 220 nM.

As to `CC(C)c1nc2cnc(-c3cccc(Br)c3)cn2c1-c1ccc2[nH]ncc2c1F` [Example 73, 6-(3-Bromo-phenyl)-3-(4-fluoro-1H-indazol-5-yl)-2-isopropyl-imidazo[1,2-a]pyrazine], the IC50 with S. mansoni adult worms is 36 nM; in data set [1] (setting [2]), 27 nM.

Consider `Cc1nn2cnc(-c3ccc(F)c(C(F)(F)F)c3)cc2c1-c1c(F)cc(O)cc1F` [Example 42, 3,5-difluoro-4-(5-(4-fluoro-3-(trifluoromethyl)phenyl)-2-methylpyrazolo[1,5-c]pyrimidin-3-yl)phenol], for which the IC50 in data set [1] (setting [2]) came to 110 nM.

In the case of `Fc1ccc(-c2cn3c(-c4ccc5[nH]ncc5c4F)c(C(F)(F)F)nc3cn2)cc1Br` [Example 85, 6-(3-Bromo-4-fluoro-phenyl)-3-(4-fluoro-1H-indazol-5-yl)-2-trifluoromethyl-imidazo[1,2-a]pyrazine], the IC50 with S. mansoni adult worms was determined as 48 nM; in data set [1] (setting [2]) it was 7 nM.

For `Oc1ccc(-c2c(C(F)F)nc3cnc(-c4cccc(C(F)(F)F)c4)cn23)c(F)c1` [Example 11, 3-fluoro-4-[2-difluoromethyl-6-[3-(trifluoromethyl)phenyl]imidazo[1,2-a]pyrazin-3-yl]phenol], in data set [1] (setting [2]), the IC50 came out at 490 nM.

`COc1ccc(-c2c(C)nn3cnc(-c4cccc(C(F)(F)F)c4)cc23)cc1O` [Example 23, 2-methoxy-5-(2-methyl-5-(3-(trifluoromethyl)phenyl)pyrazolo[1,5-c]pyrimidin-3-yl)phenol]: the IC50 in data set [1] (setting [2]) came out at 790 nM.

As for `Oc1cc(F)c(-c2c(C3CC3)nn3cnc(-c4ccc(F)c(C(F)(F)F)c4)cc23)c(F)c1` [Example 60, 4-[2-Cyclopropyl-5-(4-fluoro-3-trifluoromethyl-phenyl)-pyrazolo[1,5-c]pyrimidin-3-yl]-3,5-difluoro-phenol], the IC50 in the data set on S. mansoni adult worms was 17 nM; in data set [1] (setting [2]), 21 nM.

Consider `CC(C)c1nc2cnc(-c3ccc(F)c(S(F)(F)(F)(F)F)c3)cn2c1-c1ccc2[nH]ncc2c1F` [Example 68, 3-(4-Fluoro-1H-indazol-5-yl)-6-(4-fluoro-3-pentafluorosulfanyl-phenyl)-2-isopropyl-imidazo[1,2-a]pyrazine], for which the IC50 in the data set with S. mansoni adult worms came to 11 nM; in data set [1] (setting [2]), 10 nM.

Turning to `Oc1ccc(-c2c(C3CC3)nc3cnc(-c4cccc(C(F)(F)F)c4)cn23)c(F)c1` [Example 14, 3-fluoro-4-[2-cyclopropyl-6-[3-(trifluoromethyl)phenyl]imidazo[1,2-a]pyrazin-3-yl]phenol], in data set [1] (setting [2]), the IC50 was determined as 230 nM.

In the case of `Fc1c(-c2c(C(F)(F)F)nc3cnc(-c4cccc(C(F)(F)F)c4)cn23)ccc2[nH]ncc12` [Example 70, 3-(4-Fluoro-1H-indazol-5-yl)-2-trifluoromethyl-6-(3-trifluoromethyl-phenyl)-imidazo[1,2-a]pyrazine], the IC50 in the data set with S. mansoni adult worms was 25 nM; in data set [1] (setting [2]), 41 nM.

`CC(C)c1nn2cnc(-c3ccc(F)c(C(F)(F)F)c3)cc2c1-c1ccc2[nH]ncc2c1F` [Example 61, 3-(4-Fluoro-1H-indazol-5-yl)-5-(4-fluoro-3-trifluoromethyl-phenyl)-2-isopropylpyrazolo[1,5-c]pyrimidine]: the IC50 with S. mansoni adult worms was 37 nM; in data set [1] (setting [2]), 60 nM.
